For 5 compounds, IC50 and viability, T/C results are on record in PubChem BioAssay AID2060910 (Molecular Pharmacology Branch, DTP, NCI, 2025).

The test system of this assay is 242566-281-R-J2-PDC complex spheroid viability. Kind of assay: Anticancer human tumor 242566-281-R-J2-PDC patient-derived pancreatic carcinoma cell line growth inhibition [RAS]. As to conditions: for viability, T/C: stronger effect = lower value. An outline of the steps:
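Agents were tested in combination matrices in half-log decrements from a top concentration at or near clinical Cmax (10 microM if undetermined). Targets were multi-cell spheroids of tumour lines plus HUVEC and MSC stromal cells.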

Molecules are shown by their SMILES. Values joined by “and” are separate entries in the source; they are usually repeats but may differ in a detail not shown here. Equal values may be shown once.
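Also: spheroids exposed to compound for 7 days before readout.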
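For viability, T/C in this document: 100% = DMSO vehicle control wells.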

What is called IC50 is the point on the concentration scale where inhibition reaches its midpoint. What is called viability, T/C is the result in the treated group divided by that in the control group, in per cent. Take `Nc1ccn(C2OC(CO)C(O)C2(F)F)c(=O)n1` (stereo not given) + C=CC(=O)N1CCN(c2nc(OCC3CCCN3C)nc3c(F)c(-c4nc(N)cc(C)c4C(F)(F)F)c(Cl)cc23)C(C)C1: the IC50 amounted to 108 nM (curve of first compound, second compound 0.00316 µM); 112 nM (curve of first compound, second compound 0.01 µM); 103 nM (curve of first compound, second compound 0.0316 µM); 96.9 nM (curve of first compound, second compound 0.1 µM); 57.3 nM (curve of first compound, second compound 0.316 µM); 97.2 nM (curve of first compound, second compound 1 µM). Also, the viability, T/C reads like this: (second compound 0.00316 µM, first compound 0.00316 µM) 101%; (second compound 0.00316 µM, first compound 0.01 µM) 118%; (second compound 0.00316 µM, first compound 0.0316 µM) 92.6%; (second compound 0.00316 µM, first compound 0.1 µM) 52.1%; (second compound 0.00316 µM, first compound 0.316 µM) 25.9%; (second compound 0.00316 µM, first compound 1 µM) 18.4%. Besides, the viability, T/C is 123% (second compound 0.01 µM, first compound 0.00316 µM); 128% (second compound 0.01 µM, first compound 0.01 µM); 93.6% (second compound 0.01 µM, first compound 0.0316 µM); 53.8% (second compound 0.01 µM, first compound 0.1 µM); 26% (second compound 0.01 µM, first compound 0.316 µM); 16.2% (second compound 0.01 µM, first compound 1 µM). Also, the viability, T/C is, setting by setting: (second compound 0.0316 µM, first compound 0.00316 µM) 103%; (second compound 0.0316 µM, first compound 0.01 µM) 147%; (second compound 0.0316 µM, first compound 0.0316 µM) 74.3%; (second compound 0.0316 µM, first compound 0.1 µM) 60%; (second compound 0.0316 µM, first compound 0.316 µM) 21.6%; (second compound 0.0316 µM, first compound 1 µM) 15.8%. Moreover, the viability, T/C (second compound 0.1 µM, first compound 0.00316 µM) was 134%; the viability, T/C (second compound 0.1 µM, first compound 0.01 µM) is 124%; the viability, T/C (second compound 0.1 µM, first compound 0.0316 µM) is 91.3%; the viability, T/C (second compound 0.1 µM, first compound 0.1 µM) is 50.8%; the viability, T/C (second compound 0.1 µM, first compound 0.316 µM) is 21.5%; the viability, T/C (second compound 0.1 µM, first compound 1 µM) was 19.1%. Further, the viability, T/C is 115% (second compound 0.316 µM, first compound 0.00316 µM); 160% (second compound 0.316 µM, first compound 0.01 µM); 75.5% (second compound 0.316 µM, first compound 0.0316 µM); 41.9% (second compound 0.316 µM, first compound 0.1 µM); 20.6% (second compound 0.316 µM, first compound 0.316 µM); 15.7% (second compound 0.316 µM, first compound 1 µM). The viability, T/C (second compound 1 µM, first compound 0.00316 µM) is 115%; the viability, T/C (second compound 1 µM, first compound 0.01 µM) is 102%; the viability, T/C (second compound 1 µM, first compound 0.0316 µM) was 83.6%; the viability, T/C (second compound 1 µM, first compound 0.1 µM) was 50.9%; the viability, T/C (second compound 1 µM, first compound 0.316 µM) was 22%; the viability, T/C (second compound 1 µM, first compound 1 µM) was 18.9%.

For the compound `C=CC(=O)N1CCN(c2nc(OCC3CCCN3C)nc3c(F)c(-c4nc(N)cc(C)c4C(F)(F)F)c(Cl)cc23)C(C)C1` (stereo not given) + CCn1c(-c2cc(N3CCN(C)CC3)cnc2C(C)OC)c2c3cc(ccc31)-c1csc(n1)CC(NC(=O)C1CC1C)C(=O)N1CCCC(N1)C(=O)OCC(C)(C)C2, the IC50 by setting is: (curve of first compound, second compound 0.000949 µM) greater than 1000 nM; (curve of first compound, second compound 0.003 µM) greater than 1000 nM; (curve of first compound, second compound 0.00949 µM) less than 3.16 nM; (curve of first compound, second compound 0.03 µM) less than 3.16 nM; (curve of first compound, second compound 0.0949 µM) less than 3.16 nM; (curve of first compound, second compound 0.3 µM) less than 3.16 nM. The viability, T/C was 91.5% (second compound 0.000949 µM, first compound 0.00316 µM); 90.3% (second compound 0.000949 µM, first compound 0.01 µM); 69.8% (second compound 0.000949 µM, first compound 0.0316 µM); 96.7% (second compound 0.000949 µM, first compound 0.1 µM); 86.9% (second compound 0.000949 µM, first compound 0.316 µM); 59.6% (second compound 0.000949 µM, first compound 1 µM). The viability, T/C (second compound 0.003 µM, first compound 0.00316 µM) was 80.6%; the viability, T/C (second compound 0.003 µM, first compound 0.01 µM) is 62.2%; the viability, T/C (second compound 0.003 µM, first compound 0.0316 µM) is 67.8%; the viability, T/C (second compound 0.003 µM, first compound 0.1 µM) is 70.5%; the viability, T/C (second compound 0.003 µM, first compound 0.316 µM) is 76.5%; the viability, T/C (second compound 0.003 µM, first compound 1 µM) is 51.7%. Besides, the viability, T/C runs as follows: (second compound 0.00949 µM, first compound 0.00316 µM) 46.6%; (second compound 0.00949 µM, first compound 0.01 µM) 39.8%; (second compound 0.00949 µM, first compound 0.0316 µM) 44.3%; (second compound 0.00949 µM, first compound 0.1 µM) 47.3%; (second compound 0.00949 µM, first compound 0.316 µM) 43.1%; (second compound 0.00949 µM, first compound 1 µM) 41.3%. Besides, the viability, T/C is, setting by setting: (second compound 0.03 µM, first compound 0.00316 µM) 33.7%; (second compound 0.03 µM, first compound 0.01 µM) 32.1%; (second compound 0.03 µM, first compound 0.0316 µM) 30.3%; (second compound 0.03 µM, first compound 0.1 µM) 30.5%; (second compound 0.03 µM, first compound 0.316 µM) 23.8%; (second compound 0.03 µM, first compound 1 µM) 26.9%. Besides, the viability, T/C is 25.1% (second compound 0.0949 µM, first compound 0.00316 µM); 22.6% (second compound 0.0949 µM, first compound 0.01 µM); 23.1% (second compound 0.0949 µM, first compound 0.0316 µM); 24.5% (second compound 0.0949 µM, first compound 0.1 µM); 20.1% (second compound 0.0949 µM, first compound 0.316 µM); 26% (second compound 0.0949 µM, first compound 1 µM). For the same compound, the viability, T/C (second compound 0.3 µM, first compound 0.00316 µM) was 21.6%; the viability, T/C (second compound 0.3 µM, first compound 0.01 µM) is 20.6%; the viability, T/C (second compound 0.3 µM, first compound 0.0316 µM) is 21.7%; the viability, T/C (second compound 0.3 µM, first compound 0.1 µM) was 20.6%; the viability, T/C (second compound 0.3 µM, first compound 0.316 µM) is 19.8%; the viability, T/C (second compound 0.3 µM, first compound 1 µM) was 20.2%.

With `CC(C)n1nc(-c2ccc3oc(N)nc3c2)c2c(N)ncnc21`, the viability, T/C is 104% [middle of 4 runs] (compound 0.000316 µM); 102% [middle of 4 runs] (compound 0.001 µM); 85.6% [middle of 4 runs] (compound 0.01 µM); 63.6% [middle of 4 runs] (compound 0.0316 µM); 60.3% [middle of 4 runs] (compound 0.1 µM). Besides, the IC50 (curve of compound) is 50.9 nM and > 100 nM and 52.5 nM.

For the compound `CC1(O)CCCC1n1c(=O)c(C(F)F)cc2cnc(NC3CCN(S(C)(=O)=O)CC3)nc21` (stereo not given), the viability, T/C was 106% [middle of 4 runs] (compound 1 µM); 105% and 103% (2×) and 123% (compound 3.16 µM). The IC50 (curve of compound) is > 10000 nM and 7540 nM and 8690 nM.

Consider `Nc1ccn(C2OC(CO)C(O)C2(F)F)c(=O)n1` (stereo not given), for which the viability, T/C is, setting by setting: (compound 0.00316 µM) 102% [middle of 4 runs]; (compound 0.01 µM) 103% [middle of 4 runs]; (compound 0.0316 µM) 74.9% [middle of 4 runs]; (compound 0.1 µM) 49.9% [middle of 4 runs]; (compound 0.316 µM) 23.4% [middle of 4 runs]; (compound 1 µM) 15.6% [middle of 4 runs]. Also, the IC50 (curve of compound) was 89.6 nM [middle of 4 runs].
